Measured values reported in BigSolDB 2.1.

CSCCC(NC(C)=O)C(=O)O (racemic)
solubility (mole fraction)
Conditions	283.15 K	293.15 K	303.15 K	313.15 K	323.15 K
in 1,4-dioxane	0.0227	0.0428	0.073	0.108	0.167
in 2-butanone	0.00843	0.0131	0.0207	0.0327	0.0568
in acetone	0.0138	0.0215	0.037	0.0587	0.0959
in acetonitrile	0.00292	0.00491	0.00877	0.016	0.0326
in dichloromethane	0.00024	0.00036	0.00052	0.0007	0.00093
in ethanol	0.0453	0.0626	0.0954	0.135	0.184
in ethyl acetate	0.00265	0.00429	0.00641	0.00936	0.0153
in isobutanol	0.0229	0.0345	0.0531	0.0779	0.114
in isopropanol	0.029	0.0436	0.066	0.0984	0.14
in methanol	0.0794	0.105	0.141	0.187	0.262
in methyl acetate	0.00352	0.00525	0.0084	0.0139	0.0243
in n-butanol	0.0247	0.0393	0.0591	0.0888	0.127
in n-pentanol	0.0215	0.0309	0.0465	0.0684	0.103
in n-propanol	0.031	0.0511	0.077	0.115	0.15
in sec-butanol	0.0236	0.0375	0.0568	0.0839	0.121
in water	0.00589	0.008	0.0136	0.0231	0.0543
